Assays:
Type in all cases: functional, cell-based
Settings in all cases: Homo sapiens
DU-145 [1] = experiment: Cellular uptake of compound into DU145 tumor cells by laser scanning cytometry at a concentration of 0.1 uM
DU-145 [2] = experiment: Cellular uptake of compound into DU145 tumor cells by laser scanning cytometry at a concentration of 10 uM
DU-145 [3] = experiment: Cellular uptake of compound into DU145 tumor cells by laser scanning cytometry at a concentration of 1 uM
HCT-15 [4] = experiment: Cellular uptake of compound into HCT15 tumor cells by laser scanning cytometry at a concentration of 0.1 uM
HCT-15 [5] = experiment: Cellular uptake of compound into HCT15 tumor cells by laser scanning cytometry at a concentration of 10 uM
HCT-15 [6] = experiment: Cellular uptake of compound into HCT15 tumor cells by laser scanning cytometry at a concentration of 1 uM

Work on NCCCCC(CC(N)=O)NC(=O)CC(CCCCN)NC(=O)CC(CCCCN)NC(=O)CC(CCCCN)NC(=O)CC(CCCCN)NC(=O)CC(CCCCN)NC(=O)CC(CCCCN)NC(=O)CC(CCCCN)NC(=O)COCCOCCNC(=O)c1ccccc1C1c2ccc(O)cc2Oc2cc(O)ccc21 (stereo not given) yielded an Uptake (DU-145 [1]) of 98.5%, an Uptake (DU-145 [2]) of 89.5% and an Uptake (DU-145 [3]) of 98.9%. For the same compound, the Uptake (HCT-15 [4]) was 99.5%, the Uptake (HCT-15 [5]) was 99.9% and the Uptake (HCT-15 [6]) was 99.9%.
In the case of O=C1OC2(c3ccc(O)cc3Oc3cc(O)ccc32)c2ccccc21, the Uptake (DU-145 [1]) is reported as 0.1%, the Uptake (DU-145 [2]) is reported as 0.3% and the Uptake (DU-145 [3]) is reported as 0.8%. It also gave an Uptake (HCT-15 [4]) of 0.3%, an Uptake (HCT-15 [5]) of 0.7% and an Uptake (HCT-15 [6]) of 1.1%.
With NCCCCC(CC(N)=O)NC(=O)CC(CCCCN)NC(=O)CC(CCCCN)NC(=O)CC(CCCCN)NC(=O)CC(CCCCN)NC(=O)CC(CCCCN)NC(=O)CC(CCCCN)NC(=O)COCCOCCNC(=O)c1ccccc1C1c2ccc(O)cc2Oc2cc(O)ccc21 (stereo not given) the Uptake (DU-145 [1]) was 92.5%, the Uptake (DU-145 [2]) was 98.8% and the Uptake (DU-145 [3]) was 85.8%. The Uptake (HCT-15 [4]) was 99.9%, the Uptake (HCT-15 [5]) was 99.8% and the Uptake (HCT-15 [6]) was 99.8%.
In the case of NCCCCC(CC(N)=O)NC(=O)CC(CCCCN)NC(=O)CC(CCCCN)NC(=O)CC(CCCCN)NC(=O)CC(CCCCN)NC(=O)COCCOCCNC(=O)c1ccccc1C1c2ccc(O)cc2Oc2cc(O)ccc21 (stereo not given), the Uptake (DU-145 [1]) is reported as 71.9%, the Uptake (DU-145 [2]) is reported as 97.8% and the Uptake (DU-145 [3]) is reported as 76.5%. The Uptake (HCT-15 [4]) was 99.8%, the Uptake (HCT-15 [5]) was 99.8% and the Uptake (HCT-15 [6]) was 99.6%.
NCCCCC(CC(N)=O)NC(=O)CC(CCCCN)NC(=O)CC(CCCCN)NC(=O)CC(CCCCN)NC(=O)CC(CCCCN)NC(=O)CC(CCCCN)NC(=O)COCCOCCNC(=O)c1ccccc1C1c2ccc(O)cc2Oc2cc(O)ccc21 (stereo not given) was tested, and the Uptake (DU-145 [1]) was 40.4%, the Uptake (DU-145 [2]) was 94.9% and the Uptake (DU-145 [3]) was 69.5%. The Uptake (HCT-15 [4]) was 99.9%, the Uptake (HCT-15 [5]) was 99.6% and the Uptake (HCT-15 [6]) was 99.7%.

— ChEMBL document CHEMBL1136266, “beta-Homolysine oligomers: a new class of Trojan carriers” (Bioorg Med Chem Lett, 2003)
